Measurements published in patent US20030124084A1, “Use of dehydroepiandrosterone and/or precursors or derivatives thereof to improve papery aspect of the skin” (priority 2000, published 2003).

Assays:
Type in all cases: in vivo, human
[1] = test system: weathered appearance of the skin; test: Clinical score of the weathered appearance of the skin, back of the hand, treated hand vs control hand
Experimental: A gelled oil-in-water emulsion containing 1% by weight of DHEA as sole active agent was tested in comparison with a vehicle consisting of an identical emulsion but not containing DHEA.
The products were tested on a group of forty women aged from 55 to 70. Half of the individuals applied the vehicle and the other half applied the DHEA-based emulsion, the choice of the individuals being made according to a computer-generated randomization. The emulsion was applied in the morning and in the evening for four months to the back of only one hand, the other hand serving as a control. The amounts applied were controlled by weighing the tubes at the start and end of the test.
The weathered appearance is assessed clinically under blind conditions on the back of each hand, at the start of the test and after four months, by the same clinician. The weathered appearance is represented by a clinical score ranging from 0 (weathered appearance absent or relatively unpronounced) to 9 (very pronounced weathered appearance).
The statistical analysis is performed by Wilcoxon tests.

skin of the face [2] = test: Elasticity of the skin by Dermal Torque Meter
Experimental: (§1) This test was performed simultaneously with the one described in example 2, by applying the same products, onto the same groups of individuals, and under the same conditions, except that the products were applied to the skin of the face.
The elasticity of the skin was assessed, at the start of the test and after four months, using the apparatus available under the tradename Dermal Torque Meter® from DTM® Dia-Stron Limited, Andover, Hampshire, United Kingdom. This apparatus makes it possible to study the response of the skin to a deformation applied in the direction parallel to its surface, as described in Escoffier C et al., Age-Related Mechanical Properties of Human Skin: an in Vivo Study, J. Invest. Dermatol., 1989, 93:353-357.
(§2) The statistical analysis was performed by Wilcoxon tests.

skin of the face [3] = test: Clinical scores of texture and flaccidness of the skin of the face
Experimental: as §1
The texture of the skin and the flaccidness were assessed under blind conditions by the same clinician and are represented by clinical scores ranging from 0 (unpronounced or relatively unpronounced parameter) to 9 (very pronounced parameter).
as §2

[4] = four months vs placebo, Wilcoxon test
[5] = after four months, 1% DHEA emulsion topical on face, score 0 to 9
[6] = start of test, face, score 0 to 9

C[C@]12CC[C@H](O)CC1=CC[C@@H]1[C@@H]2CC[C@]2(C)C(=O)CC[C@@H]12 [DHEA, dehydroepiandrosterone]
score for the weathered appearance on the treated hand vs control hand ([1]; after four months, 1% DHEA emulsion topical morning and evening on back of one hand, score 0 to 9, significant at p=0.05): lower
difference in scores of the weathered appearance between the two hands ([1]; initial time (To), clinical score 0 to 9, women aged 55 to 70): virtually nonexistent
Elasticity, T4 (skin of the face [2]; after four months, 1% DHEA emulsion topical on face, Dermal Torque Meter): 0.66
effect of topical application on elasticity of the skin (skin of the face [2]; [4]): does not significantly modify
Elasticity, T0 (skin of the face [2]; start of test, face, Dermal Torque Meter): 0.77
Flaccidness clinical score, T4 (skin of the face [3]; [5]): 4.15
Texture clinical score, T4 (skin of the face [3]; [5]): 3.8
effect of topical application on flaccidness of the skin (skin of the face [3]; [4]): does not significantly modify
effect of topical application on texture of the skin (skin of the face [3]; [4]): does not significantly modify
Flaccidness clinical score, T0 (skin of the face [3]; [6]): 4.45
Texture clinical score, T0 (skin of the face [3]; [6]): 4
